In patent US20100144733A1, “Compounds, compositions and methods comprising heteroaromatic derivatives” (Institute for OneWorld Health, priority 2008, published 2010):
Where two headings read alike, the source gives them in different places.

Key:
[1] = system: cholera toxin (CTX) induced net fluid secretion in intestinal loops; assay: animal or person; type: in vivo, mice (CD1 strain); settings: 4 hours; for inhibition in vivo at 100 µg/loop: Mus musculus, read-out: closed loop % inhibition @ 100 μg
CFTR = target: T1, CFTR (Homo sapiens, UniProt P13569); assay: T84 assay (FLIPR membrane potential dye, forskolin/IBMX-stimulated CFTR channel activity); type: cell-based
T1 construct: endogenous in cells; host or cells: T84 human colonic cells (ECACC)
T1 sequence (P13569 whole entry): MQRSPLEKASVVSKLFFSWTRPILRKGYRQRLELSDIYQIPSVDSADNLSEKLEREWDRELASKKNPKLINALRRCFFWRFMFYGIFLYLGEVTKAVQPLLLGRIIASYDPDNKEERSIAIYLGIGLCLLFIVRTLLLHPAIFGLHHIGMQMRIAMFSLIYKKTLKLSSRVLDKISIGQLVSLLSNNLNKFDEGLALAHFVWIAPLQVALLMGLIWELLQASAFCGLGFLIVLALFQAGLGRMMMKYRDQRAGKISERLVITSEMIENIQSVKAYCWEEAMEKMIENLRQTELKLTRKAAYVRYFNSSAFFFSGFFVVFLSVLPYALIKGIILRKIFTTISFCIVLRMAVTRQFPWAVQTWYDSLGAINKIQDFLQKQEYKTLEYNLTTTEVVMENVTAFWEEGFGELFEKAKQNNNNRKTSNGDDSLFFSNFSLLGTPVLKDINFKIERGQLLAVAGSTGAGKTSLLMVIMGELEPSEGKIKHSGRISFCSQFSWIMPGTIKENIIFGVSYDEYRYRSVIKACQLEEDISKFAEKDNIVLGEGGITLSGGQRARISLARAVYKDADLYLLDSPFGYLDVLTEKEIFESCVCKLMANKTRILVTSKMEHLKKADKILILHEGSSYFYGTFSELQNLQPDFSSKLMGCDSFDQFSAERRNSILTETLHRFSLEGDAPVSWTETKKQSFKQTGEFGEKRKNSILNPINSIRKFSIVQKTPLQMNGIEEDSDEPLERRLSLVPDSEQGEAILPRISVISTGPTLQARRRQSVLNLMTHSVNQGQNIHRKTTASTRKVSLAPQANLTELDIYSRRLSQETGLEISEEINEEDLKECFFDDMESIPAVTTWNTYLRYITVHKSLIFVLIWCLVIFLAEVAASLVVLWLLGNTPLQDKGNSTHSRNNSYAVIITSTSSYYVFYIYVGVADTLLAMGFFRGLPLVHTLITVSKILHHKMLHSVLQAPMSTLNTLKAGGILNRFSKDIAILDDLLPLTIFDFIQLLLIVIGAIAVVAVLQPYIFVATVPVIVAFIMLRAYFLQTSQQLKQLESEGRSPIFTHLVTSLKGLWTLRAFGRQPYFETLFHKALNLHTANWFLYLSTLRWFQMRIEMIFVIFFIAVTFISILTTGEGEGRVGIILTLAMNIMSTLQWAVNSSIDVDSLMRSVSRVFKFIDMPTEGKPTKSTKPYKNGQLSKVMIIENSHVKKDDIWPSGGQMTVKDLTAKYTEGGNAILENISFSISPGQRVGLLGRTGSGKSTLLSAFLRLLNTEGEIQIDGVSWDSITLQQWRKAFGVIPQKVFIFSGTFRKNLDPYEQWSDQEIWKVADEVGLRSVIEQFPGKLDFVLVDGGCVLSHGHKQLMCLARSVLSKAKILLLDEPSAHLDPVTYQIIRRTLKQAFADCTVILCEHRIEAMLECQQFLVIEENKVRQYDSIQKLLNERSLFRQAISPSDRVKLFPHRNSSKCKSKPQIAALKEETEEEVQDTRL
Method in brief: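 Fluorescence from a membrane potential dye in T84 monolayers (HBSS with 10 mM Hepes) is followed each second for 150 s. Cells are exposed to test compound during the 45 min dye loading, then challenged with forskolin (10 μM) and IBMX (100 μM) to open CFTR. Inhibitors suppress the depolarization-driven fluorescence increase.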

CHO-CFTR cell line = target: T2, CHO-CFTR cell line (Homo sapiens, UniProt P13569); assay: CHO-CFTR assay (FLIPR assay, same conditions as the T84 assay); type: cell-based; settings: imidazole and triazole-containing compounds
T2 construct: expressed in transfected cells; host or cells: CHO (CHO-CFTR cell line)
T2 sequence (P13569 whole entry): as above

[2] = oxadiazole-containing compounds (a series), average of at least 2 runs unless annotated n = 1, read-out: IC50
[3] = imidazole and triazole-containing compounds (Tables 13, 14, 14′), read-out: IC50 (μM) (T84 assay)

| SMILES | IC50 (CFTR; [3]) | IC50 (CHO-CFTR cell line) | also measured |
| --- | --- | --- | --- |
| CN(Cc1ccc(C(F)(F)F)cc1)C(=O)c1cc(-c2cc(Br)c(O)c(Br)c2)on1 [2g, 5-(3,5-Dibromo-4-hydroxyphenyl)-N-methyl-N-(4(trifluoromethyl)benzyl)isoxazole-3-carboxamide] | – | – | closed loop % inhibition @ 10 μg [1]: −66.3%; inhibition in vivo at 100 µg/loop [1]: 94.2%; IC50 (CFTR; isoxazole-containing compounds (Table 10, 10′, 11, 11′), read-out: IC50): 6.96 µM |
| Oc1c(Br)cc(-c2cnc(OCCc3ccccc3)nn2)cc1Br [96e, 2,6-dibromo-4-(3-phenethoxy-1,2,4-triazin-6-yl)phenol] | – | – | closed loop % inhibition @ 100 μg [1]: 78.6% |
| Oc1c(Br)cc(-c2cnc(OCc3ccc(Cl)cc3)nn2)cc1Br [20e, 2,6-dibromo-4-(3-(4-chlorobenzyloxy)-1,2,4-triazin-6-yl)phenol] | – | – | closed loop % inhibition @ 100 μg [1]: 87.6% |
| CC(C)(C)C(=O)CN(Cc1cccc(C(F)(F)F)c1)C(=O)c1nc(-c2cc(Br)c(O)c(Br)c2)no1 [1a, 3-(3,5-dibromo-4-hydroxyphenyl)-N-(3,3-dimethyl-2-oxobutyl)-N-(3-(trifluoromethyl)benzyl)-1,2,4-oxadiazole-5-carboxamide] | – | – | closed loop % inhibition @ 10 μg [1]: 69.4%; inhibition in vivo at 100 µg/loop [1]: 87.1%; IC50 (CFTR; [2]): 0.98 µM |
| Oc1c(Br)cc(-c2cnc(COc3cccc(Cl)c3Cl)nn2)cc1Br [30e, 2,6-dibromo-4(3-((2,3-dichlorophenoxy)methyl)-1,2,4-triazin-6-yl)phenol] | – | – | closed loop % inhibition @ 100 μg [1]: 94.4% |
| Oc1c(Cl)cc(-c2cnc(C(O)(c3ccccc3)c3ccccc3)nn2)cc1Cl [36e, 2,6-dichloro-4-(3-(hydroxydiphenylmethyl)-1,2,4-triazin-6-yl)phenol] | – | – | closed loop % inhibition @ 10 μg [1]: 62.1%; closed loop % inhibition @ 100 μg [1]: 74.9% |
| O=C(NCc1ccc(Oc2ccccc2)cc1)c1nc(-c2cc(Br)c(O)c(Br)c2)no1 [13a, 3-(3,5-dibromo-4-hydroxyphenyl)-N-(4-phenoxybenzyl)-1,2,4-oxadiazole-5-carboxamide] | – | – | closed loop % inhibition @ 10 μg [1]: 88.6%; inhibition in vivo at 100 µg/loop [1]: 94.7%; IC50 (CFTR; [2]): 8.51 µM |
| CCN(Cc1ccccc1)c1ccc(-c2cc(Cl)c(O)c(Cl)c2)nn1 [115f, 4-(6-(benzyl(ethyl)amino)pyridazin-3-yl)-2,6-dichlorophenol] | – | – | closed loop % inhibition @ 100 μg [1]: 79.4% |
| O=C(NCc1cccc(OC(F)(F)F)c1)c1noc(-c2cc(Br)c(O)c(Br)c2)n1 [65a, 5-(3,5-Dibromo-4-hydroxyphenyl)-N-(3-(trifluoromethoxy)benzyl)-1,2,4-oxadiazole-3-carboxamide] | – | – | inhibition in vivo at 100 µg/loop [1]: 94.6%; IC50 (CFTR; [2]): 1.53 µM |
| OCCN(Cc1ccccc1)c1ccc(-c2cc(Cl)c(O)c(Cl)c2)nn1 [98f, 4-(6-(benzyl(2-hydroxyethyl)amino)pyridazin-3-yl)-2,6-dichlorophenol] | – | – | closed loop % inhibition @ 100 μg [1]: 67.0% |
| O=C(NCc1cccc(OC(F)(F)F)c1)c1noc(-c2cc(Cl)c(O)c(Cl)c2O)n1 [120a, 5-(3,5-dichloro-2,4-dihydroxyphenyl)-N-(3-(trifluoromethoxy)benzyl)-1,2,4-oxadiazole-3-carboxamide] | – | – | inhibition in vivo at 100 µg/loop [1]: 62.3%; IC50 (CFTR; [2]): 12.4 µM |
| Oc1c(Cl)cc(-c2cnc(OCc3ccccc3F)nn2)cc1Cl [127e, 2,6-dichloro-4-(3-(2-fluorobenzyloxy)-1,2,4-triazin-6-yl)phenol] | – | – | closed loop % inhibition @ 10 μg [1]: 62.7%; closed loop % inhibition @ 100 μg [1]: 70.2% |
| O=C(NCc1ccc(Cl)c(Cl)c1)c1ncn(-c2cc(Cl)c(O)c(Cl)c2)n1 [37i, 1-(3,5-dichloro-4-hydroxyphenyl)-N-(3,4-dichlorobenzyl)-1H-1,2,4-triazole-3-carboxamide] | 2.67 µM | 5.71 µM | – |
| CC(C)(C)C(=O)C(Cc1cccc(C(F)(F)F)c1)NC(=O)c1ncn(-c2cc(Cl)c(O)c(Cl)c2)n1 (stereo not drawn) [132i, 1-(3,5-dichloro-4-hydroxyphenyl)-N-(4,4-dimethyl-3-oxo-1-(3-(trifluoromethyl)phenyl)pentan-2-yl)-1H-1,2,4-triazole-3-carboxamide] | 3.87 µM | 26.5 µM | – |
| O=C(NCc1ccc(Oc2cc(Cl)c(OCc3ccccc3)c(Cl)c2)cc1)c1ncn(-c2cc(Cl)c(O)c(Cl)c2)n1 [73i] | 30.7 µM | 17 µM | – |
| O=C(c1ncn(-c2cc(Cl)c(O)c(Cl)c2)n1)N(Cc1ccc(Oc2ccccc2)cc1)Cc1cccnc1 [91i, 1-(3,5-dichloro-4-hydroxyphenyl)-N-(4-phenoxybenzyl)-N-(pyridin-3-ylmethyl)-1H-1,2,4-triazole-3-carboxamide] | 2.89 µM | 20.6 µM | – |
| CC(C)(C)C(=O)C(Cc1cccc(OC(F)(F)F)c1)NC(=O)c1ncn(-c2cc(Cl)c(O)c(Cl)c2)n1 (stereo not drawn) [133i, 1-(3,5-dichloro-4-hydroxyphenyl)-N-(4,4-dimethyl-3-oxo-1-(3-(trifluoromethoxy)phenyl)pentan-2-yl)-1H-1,2,4-triazole-3-carboxamide] | 1.23 µM | 21 µM | – |
| O=C(NCc1cc(F)cc(F)c1)c1noc(-c2cc(Cl)c(O)c(Cl)c2)n1 [112a, 5-(3,5-dichloro-4-hydroxyphenyl)-N-(3,5-difluorobenzyl)-1,2,4-oxadiazole-3-carboxamide] | – | – | inhibition in vivo at 100 µg/loop [1]: 51%; IC50 (CFTR; [2]): 11.2 µM |
| O=C(c1ncn(-c2cc(Cl)c(O)c(Cl)c2)n1)N(Cc1ccccc1)Cc1ccc(Cl)c(Cl)c1 [83i, N-benzyl-1-(3,5-dichloro-4-hydroxyphenyl)-N-(3,4-dichlorobenzyl)-1H-1,2,4-triazole-3-carboxamide] | 3.22 µM | 14.3 µM | – |
| O=C(NCC(c1ccccc1)c1ccccc1)c1ncn(-c2cc(Cl)c(O)c(Cl)c2)n1 [44i, 1-(3,5-dichloro-4-hydroxyphenyl)-N-(2,2-diphenylethyl)-1H-1,2,4-triazole-3-carboxamide] | 2.8 µM | 23.2 µM | – |
| O=C(NCc1ccc(Oc2ccccc2)cc1)c1ncn(-c2cc(Cl)c(O)c(Cl)c2)n1 [49i, 1-(3,5-dichloro-4-hydroxyphenyl)-N-(4-phenoxybenzyl)-1H-1,2,4-triazole-3-carboxamide] | 1.57 µM | 0.45 µM | – |
| CC(C)N(Cc1ccc(C(C)(C)C)cc1)C(=O)c1ncn(-c2cc(Cl)c(O)c(Cl)c2)n1 [97i] | 1.23 µM | 35.5 µM | – |
| CC(C)N(Cc1ccc(Cl)c(Cl)c1)C(=O)c1ncn(-c2cc(Cl)c(O)c(Cl)c2)n1 [98i, 1-(3,5-dichloro-4-hydroxyphenyl)-N-(3,4-dichlorobenzyl)-N-isopropyl-1H-1,2,4-triazole-3-carboxamide] | 8.13 µM | 8.39 µM | – |
| CCN(Cc1cccc(C(F)(F)F)c1)C(=O)c1ncn(-c2cc(Cl)c(O)c(Cl)c2)n1 [90i, 1-(3,5-dichloro-4-hydroxyphenyl)-N-ethyl-N-(3-(trifluoromethyl)benzyl)-1H-1,2,4-triazole-3-carboxamide] | 5.98 µM | 15.9 µM | – |
| CCN(Cc1ccc(C(C)C)cc1)C(=O)c1ncn(-c2cc(Cl)c(O)c(Cl)c2)n1 [87i, 1-(3,5-dichloro-4-hydroxyphenyl)-N-ethyl-N-(4-isopropylbenzyl)-1H-1,2,4-triazole-3-carboxamide] | 1.23 µM | 20.6 µM | – |
